pIC50: −log10 of the molar value.
Target: T1, human Melanin concentrating hormone receptor 1 (MCH1r) (Homo sapiens, UniProt Q99705)
T1 construct: expressed in transfected cells; membranes)
Test: MCH1 Receptor Radioligand Binding
Details: membranes from HEK293 cells stably expressing human MCH1r; radioligand 125I-MCH
Method: MCH1 Receptor Radioligand Binding.
Assays were performed on membranes prepared from HEK293 cells stably expressing the human Melanin concentrating hormone receptor 1 (MCH1r) (Lembo et al. Nature Cell Biol 1 267-271). Assays were performed in a 96-well plate format in a final reaction volume of 200 μl per well. Each well contained 6,1 μg of membrane proteins diluted in binding buffer (50 mM Tris, 3 mM MgCl2, 0.05% bovine serum albumin (BSA) and the radioligand ^125I-MCH (IM344 Amersham) was added to give 10 000 cpm (counts per Minute) per well Each well contained 2 μl of the appropriate concentration of competitive antagonist prepared in DMSO and left to stand at room temperature for 60 minutes. Non-specific binding was determined as that remaining following incubation with […] MCH (Melanin concentrating hormone, H-1482 Bachem). The reaction was terminated by transfer of the reaction to GF/A filters using a Micro96 Harvester (Skatron Instruments, Norway). Filters were washed with assay buffer; Radioligand retained on the filters was quantified using a1450 Microbeta TRILUX (Wallac, Finland).
Non-specific binding was subtracted from all values determined. Maximum binding was that determined in the absence of any competitor following subtraction of the value determined for non-specific binding. Binding of compounds at various concentrations was plotted according to the equation y=A+(B−A)/1+((C/x)ˆD))) and IC50 estimated where […]
A is the bottom plateau of the curve i.e. the final minimum y value
B is the top of the plateau of the curve i.e. the final maximum y value
C is the x value at the middle of the curve. This represents the log EC50 value when A+B=100 […]
x is the original known x values. y is the original known y values.

T1 sequence (Q99705 whole entry): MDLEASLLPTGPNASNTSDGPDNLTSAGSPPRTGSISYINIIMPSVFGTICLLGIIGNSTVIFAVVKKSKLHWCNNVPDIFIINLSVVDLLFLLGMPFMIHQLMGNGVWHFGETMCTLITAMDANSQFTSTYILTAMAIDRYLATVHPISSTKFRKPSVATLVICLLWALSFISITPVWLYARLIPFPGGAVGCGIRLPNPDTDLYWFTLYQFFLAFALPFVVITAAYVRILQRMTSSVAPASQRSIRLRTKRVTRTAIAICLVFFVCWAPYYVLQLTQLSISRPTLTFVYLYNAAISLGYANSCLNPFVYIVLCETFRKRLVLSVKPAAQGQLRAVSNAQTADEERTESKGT

Q: `Clc1ccc(CNC2CCC(Nc3ccc4ccccc4n3)CC2)cc1Cl` (mixture of isomers) [Example 29, N-[(3,4-Dichlorophenyl)methyl]-N′-(2-quinolinyl)-1,4-cyclohexanediamine] was tested. Which pIC50 did it give?
A: Its pIC50 is 6.40.

Q: `COc1ccc2nc(NC3CCCC(NCc4cc5ccccc5o4)C3)cc(C)c2c1` (mixture of isomers) [Example 53, N-(1-benzofuran-2-ylmethyl)-N′-(6-methoxy-4-methylquinolin-2-yl)cyclohexane-1,3-diamine] was tested. Which pIC50 did it give?
A: The pIC50 was 6.25.

Q: How did the pIC50 turn out when `COc1ccc2nc(NCCCNCc3ccsc3)cc(C)c2c1` [Example 2, N-(6-Methoxy-4-methyl-2-quinolinyl)-N′-(3-thienylmethyl)-1,3-propanediamine] was run?
A: Its pIC50 is 8.00.

Source: patent US20060247439A1, “Mchir antagonists” (AstraZeneca AB, priority 2002, published 2006)
